The assay concerns the target T1, TGFβ R1 (Homo sapiens, UniProt P36897).
T1 sequence (P36897 34-503): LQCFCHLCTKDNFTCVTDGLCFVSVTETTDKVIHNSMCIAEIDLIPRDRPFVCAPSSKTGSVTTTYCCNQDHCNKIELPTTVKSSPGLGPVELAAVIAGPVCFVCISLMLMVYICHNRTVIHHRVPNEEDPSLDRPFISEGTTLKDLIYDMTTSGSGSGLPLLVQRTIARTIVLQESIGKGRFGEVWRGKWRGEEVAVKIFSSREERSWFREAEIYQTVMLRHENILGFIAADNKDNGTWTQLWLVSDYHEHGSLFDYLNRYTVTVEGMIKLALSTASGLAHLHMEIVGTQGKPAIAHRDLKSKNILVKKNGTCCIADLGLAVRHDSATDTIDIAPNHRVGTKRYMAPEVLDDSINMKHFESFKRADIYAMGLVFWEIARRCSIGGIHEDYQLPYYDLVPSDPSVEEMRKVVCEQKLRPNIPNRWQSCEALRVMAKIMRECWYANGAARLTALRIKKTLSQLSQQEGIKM
The experiment in a line: TGFβ R1 autophosphorylation protocol (33P-ATP, phosphocellulose filter plate). In kind it is biochemical. The note with it: 10 uM ATP, read-out: IC50 for Kinase Inhibition. Summed up: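 Radiometric autophosphorylation: 170 nM enzyme with compound (≤1% DMSO), 10 uM ATP plus γ-33P-ATP, […] in 20 mM MOPS pH 7, 20 min at room temperature. Reaction stopped on phosphocellulose filter, washed with H3PO4 and ethanol, counted by scintillation.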

[1] abbreviates: 170 nM TGFβ R1, 20 minutes at room temperature.
[2] abbreviates: 170 nM TGFβ R1, room temperature 20 minutes.

Like-named read-outs stand apart in the source and are kept apart here.

As to `COc1cnc(-c2cc(Cl)ccc2F)nc1Nc1ccncc1C(=O)N1CCN(CCO)CC1` [Compound 116, {4-[2-(5-Chloro-2-fluoro-phenyl)5-methoxy-pyrimidin-4-ylamino]pyridin-3-yl}-[4-(2-hydroxy-ethyl)-piperazin-1-yl]-methanone], under setting [1], the IC50 (commonly the point on the concentration scale where inhibition reaches its midpoint) was 7.37 µM.
`COc1cnc(-c2cc(Cl)ccc2F)nc1Nc1ccncc1C(=O)N1CCC[C@@H](O)C1` [Compound 218, {4-[2-(5-Chloro-2-fluoro-phenyl)-5-methoxy-pyrimidin-4-ylamino]-pyridin-3-yl}-(3-hydroxy-piperidin-1-yl)-methanone]: the IC50 under setting [2] was determined as 1.78 µM.
On the same count and under the same terms, next, `CC(C)c1cnc(-c2cc(Cl)ccc2F)nc1Nc1ccncc1C(=O)N1CC[C@H](N)C1` [Compound 209, (3-Amino-pyrrolidin-1-yl)-{4-[2-(5-chloro-2-fluoro-phenyl)-5-isopropyl-pyrimidin-4-ylamino]-pyridin-3-yl}-methanone]: 0.068 µM.
As for `COc1cnc(-c2cc(Cl)ccc2F)nc1Nc1ccncc1C(=O)NC1CC1CO` (stereo not shown) [Compound 141, 4-[2-(5-Chloro-2-fluoro-phenyl)-5-methoxy-pyrimidin-4-ylamino]-N-(2-hydroxymethyl-cyclopropyl)-nicotinamide], the IC50 under setting [1] stood at 0.038 µM.
The same measure, in the same setting: next, `COc1cnc(-c2cc(Cl)ccc2F)nc1Nc1ccncc1C(=O)NCC(F)(F)F` [Compound 37, 4-[2-(5-Chloro-2-fluoro-phenyl)-5-methoxy-pyrimidin-4-ylamino]-N-(2,2,2-trifluoro-ethyl)-nicotinamide]: 0.16 µM.
On to `CC(C)c1cnc(-c2cc(Cl)ccc2F)nc1Nc1ccncc1C(=O)N[C@H]1CCC[C@@H]1O` (stereo in doubt) [Compound 235, 4-[2-(5-Chloro-2-fluoro-phenyl)-5-isopropyl-pyrimidin-4-ylamino]-N-(2-hydroxy-cyclopentyl)-nicotinamide], for which the IC50 under setting [2] was 0.04 µM.
With `COc1cnc(-c2cc(Cl)ccc2F)nc1Nc1ccncc1C(=O)NCCCNCCOC1O[C@H](COC(C)=O)[C@@H](OC(C)=O)[C@H](OC(C)=O)[C@H]1OC(C)=O` (stereo in doubt) [Compound 132, Acetic acid 3,4,5-triacetoxy-6-{2-[3-({4-[2-(5-chloro-2-fluoro-phenyl)-5-methoxy-pyrimidin-4-ylamino]-pyridine-3-carbonyl)-amino)-propylamino]-ethoxy}-tetrahydro-pyran-2-ylmethyl ester], the IC50 under setting [1] came to 0.032 µM.
For `COc1cnc(-c2cc(Cl)ccc2F)nc1Nc1ccncc1C(=O)NCCCNC(=O)C(C)C` [Compound 95, 4-[2-(5-Chloro-2-fluoro-phenyl)-5-methoxy-pyrimidin-4-ylamino]-N-(3-isobutylylamino-propyl)-nicotinamide], under setting [1], the IC50 amounted to 0.17 µM.
For the molecule `COc1cnc(-c2cc(Cl)ccc2F)nc1Nc1ccncc1C(=O)NCCNC(=O)NC(C)C` [Compound 80, 4-[2-(5-Chloro-2-fluoro-phenyl)-5-methoxy-pyrimidin-4-ylamino]-N-[2-(3-isopropyl-ureido)-ethyl]-nicotinamide], under setting [1], the concentration for half-maximal inhibition (IC50) was 0.57 µM.
Same read-out and setting: next, `COc1cnc(-c2cc(Cl)ccc2F)nc1Nc1ccncc1C(=O)NCCNC(=O)COC1O[C@H](CO)[C@H](O)[C@H](O)[C@H]1O` (stereo partly shown) [Compound 159, 4-[2-(5-Chloro-2-fluoro-phenyl)-5-methoxy-pyrimidin-4-ylamino]-N-{2-[2-(3,4,5-trihydroxy-6-hydroxymethyl-tetrahydro-pyran-2-yloxy)-acetylamino]-ethyl}-nicotinamide]: 0.058 µM; `CNC(=O)c1cnccc1Nc1nc(-c2cc(Cl)ccc2F)ncc1Br` [Compound 93, 4-[5-Bromo-2-(5-chloro-2-fluoro-phenyl)-pyrimidin-4-ylamino]-N-methyl-nicotinamide]: 0.03 µM.
The same measure, in the same setting: next, `CC(C)NCCNC(=O)c1cnccc1Nc1nc(-c2cc(Cl)ccc2F)ncc1N1CCCC1` [Compound 23, 4-[2-(5-Chloro-2-fluoro-phenyl)-5-pyrrolidin-1-yl-pyrimidin-4-ylamino]-N-(2-isopropylamino-ethyl)-nicotinamide]: 0.2 µM; `COc1cnc(-c2cc(Cl)ccc2F)nc1Nc1ccncc1C(=O)NC[C@H](O)[C@@H](O)CN` [Compound 55, N-(4-Amino-2,3-dihydroxy-butyl)-4-[2-(5-chloro-2-fluoro-phenyl)-5-methoxy-pyrimidin-4-ylamino]-nicotinamide]: 0.13 µM; `COc1cnc(-c2cc(Cl)ccc2F)nc1Nc1ccncc1C(=O)NCCCN1CC[C@@H](O)C1` [Compound 77, 4-[2-(5-Chloro-2-fluoro-phenyl)-5-methoxy-pyrimidin-4-ylamino]-N-[3-(3-hydroxy-pyrrolidin-1-yl)-propyl]-nicotinamide]: 0.04 µM.
Turning to `COc1cnc(-c2cc(Cl)ccc2F)nc1Nc1ccncc1C(=O)NCCNCC[C@@H]1O[C@H](CO)[C@@H](O)[C@H]1O` [Compound 176, 4-[2-(5-Chloro-2-fluoro-phenyl)-5-methoxy-pyrimidin-4-ylamino]-N-{2-[2-(3,4-dihydroxy-5-hydroxymethyl-tetrahydro-furan-2-yl)-ethylamino]-ethyl}-nicotinamide], the IC50 under setting [2] worked out at 0.005 µM.
The same measure, in the same setting: the same measure for `COc1cnc(-c2cc(Cl)ccc2F)nc1Nc1ccncc1C(=O)NCCNCCOC1O[C@@H](CO)[C@H](O)[C@@H](O)[C@@H]1O` (stereo partly shown) [Compound 185]: 0.009 µM; for `CC(C)c1cnc(-c2cc(Cl)ccc2F)nc1Nc1ccncc1C(=O)NC[C@H](C)OC(=O)[C@@H](N)C(C)C` [Compound 206, 2-Amino-3-methyl-butyric acid 2-({4-[2-(5-chloro-2-fluoro-phenyl)-5-isopropyl-pyrimidin-4-ylamino]-pyridine-3-carbonyl}-amino)-1-methyl-ethyl ester]: 0.072 µM.
In the case of `COc1cnc(-c2cc(Cl)ccc2F)nc1Nc1ccncc1C(=O)NCCCNC(C)C` [Compound 131, 4-[2-(5-Chloro-2-fluoro-phenyl)-5-methoxy-pyrimidin-4-ylamino]-N-(3-isoopropyl-amino-propyl)-nicotinamide], under setting [1], the IC50 stood at 0.021 µM.
Same read-out and setting: the same measure for `COc1cnc(-c2cc(Cl)ccc2F)nc1Nc1ccncc1C(=O)NCCCN1CCOCC1` [Compound 9, 4-[2-(5-Chloro-2-fluoro-phenyl)-5-methoxy-pyrimidin-4-ylamino]-N-(3-morpholin-4-yl-propyl)-nicotinamide]: 0.03 µM; for `COc1cnc(-c2cc(Cl)ccc2F)nc1Nc1ccncc1C(=O)NCCNc1ccccc1` [Compound 71, 4-[2-(5-Chloro-2-fluoro-phenyl)-5-methoxy-pyrimidin-4-ylamino]-N-(2-phenylamino-ethyl)-nicotinamide]: 0.76 µM; for `CCOP(=O)(OCC)O[C@@H](C)CNC(=O)c1cnccc1Nc1nc(-c2cc(Cl)ccc2F)ncc1OC` [Compound 121, Phosphoric acid 2-({4-[2-(5-chloro-2-fluoro-phenyl)-5-methoxy-pyrimidin-4-ylamino]-pyridine-3-carbonyl}-amino)-1-methyl-ethyl ester diethyl ester]: 5.77 µM.
Regarding `CC(C)c1cnc(-c2cc(Cl)ccc2F)nc1Nc1ccncc1C(=O)N[C@H](C(N)=O)[C@@H](C)O` [Compound 85, N-(1-Carbamoyl-2-hydroxy-propyl)-4-[2-(5-chloro-2-fluoro-phenyl)-5-isopropyl-pyrimidin-4-ylamino]-nicotinamide], the half-inhibitory concentration (IC50) under setting [1] worked out at 3.96 µM.
For `CC(C)c1cnc(-c2cc(Cl)ccc2F)nc1Nc1ccncc1C(=O)N[C@@H]1CCC[C@H]1O` [Compound 236, 4-[2-(5-Chloro-2-fluoro-phenyl)-5-isopropyl-pyrimidin-4-ylamino]-N-(2-hydroxy-cyclopentyl)-nicotinamide], under setting [2], the IC50 turned out to be 0.123 µM.
Turning to `COc1cnc(-c2cc(Cl)ccc2F)nc1Nc1ccncc1C(=O)NCCCNC(=O)Nc1ccc2c(c1)OCO2` [Compound 76, N-[3-(3-Benzo[1,3]dioxol-5-yl-ureido)-propyl]-4-[2-(5-chloro-2-fluoro-phenyl)-5-methoxy-pyrimidin-4-ylamino]-nicotinamide], under setting [1], the IC50 was found to be 0.32 µM.
On the same count and under the same terms, the same measure for `COc1cnc(-c2cc(Cl)ccc2F)nc1Nc1ccncc1C(=O)NCCNCCO` [Compound 6, 4-[2-(5-Chloro-2-fluoro-phenyl)-5-methoxy-pyrimidin-4-ylamino]-N-[2-(2-hydroxy-ethylamino)-ethyl]-nicotinamide]: 0.01 µM; for `COc1cnc(-c2cc(Cl)ccc2F)nc1Nc1ccncc1C(=O)NCCCN1CCN(C)CC1` [Compound 38, 4-[2-(5-Chloro-2-fluoro-phenyl)-5-methoxy-pyrimidin-4-ylamino]-N-[3-(4-methyl-piperazin-1-yl)-propyl]-nicotinamide]: 0.54 µM; for `O=C(NC1CC1)c1cnccc1Nc1nc(-c2cc(Cl)ccc2F)ncc1Cl` [Compound 92, 4-[5-Chloro-2-(5-chloro-2-fluoro-phenyl)-pyrimidin-4-ylamino]-N-cyclopropyl-nicotinamide]: 0.13 µM.
The same measure, in the same setting: the same measure for `COc1cnc(-c2cc(Cl)ccc2F)nc1Nc1ccncc1C(=O)NCC(F)F` [Compound 36, 4-[2-(5-Chloro-2-fluoro-phenyl)-5-methoxy-pyrimidin-4-ylamino]-N-(2,2-difluoro-ethyl)-nicotinamide]: 0.67 µM.
